According to ChEMBL document CHEMBL1136394, “Synthesis and in vivo imaging properties of [11C]befloxatone: a novel highly potent positron emission tomography ligand for mono-amine oxidase-A” (Bioorg Med Chem Lett, 2003):

Experiments:
[1] = system: Mus musculus; test: Intravenous effective dose against L-5-hydroxytryptophan induced generalized tremors in mice; format: functional
[2] = target: T1, Amine oxidase [flavin-containing] A (Rattus norvegicus, UniProt P21396); test: Compound was tested for inhibition of MAOA in rat brain, heart, liver and duodenum homogenates; Range is 1.9-3.6 nM; format: tissue-based
T1 sequence (P21396 whole entry): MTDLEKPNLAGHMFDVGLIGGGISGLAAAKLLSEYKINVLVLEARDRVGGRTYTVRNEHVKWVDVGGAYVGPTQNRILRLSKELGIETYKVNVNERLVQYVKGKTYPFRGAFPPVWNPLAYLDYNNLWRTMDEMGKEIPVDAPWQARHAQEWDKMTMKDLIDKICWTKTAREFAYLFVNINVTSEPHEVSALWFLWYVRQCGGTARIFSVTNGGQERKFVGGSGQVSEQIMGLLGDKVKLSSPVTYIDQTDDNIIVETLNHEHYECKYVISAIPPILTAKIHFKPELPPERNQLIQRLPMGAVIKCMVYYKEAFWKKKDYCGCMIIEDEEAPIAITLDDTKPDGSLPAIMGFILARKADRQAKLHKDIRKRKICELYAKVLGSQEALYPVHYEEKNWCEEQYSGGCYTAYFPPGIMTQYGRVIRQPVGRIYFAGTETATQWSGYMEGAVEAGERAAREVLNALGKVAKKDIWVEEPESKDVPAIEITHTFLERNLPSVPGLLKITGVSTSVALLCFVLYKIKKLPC

[3] = species on record: Mus musculus; test: Oral effective dose against phenylethylamine-induced stereotypy in mice; format: functional
[4] = Half life was determined; format: ADME; details: rat
[5] = system: Mus musculus; test: Oral effective dose against L-5-hydroxytryptophan induced generalized tremors in mice; Range is 0.1-0.2 mg/Kg; format: functional
[6] = target: T2, Amine oxidase [flavin-containing] A (Homo sapiens, UniProt P21397); test: Compound was tested for inhibition of MAOA in human brain, heart, liver and duodenum homogenates; Range is 1.9-3.6 nM; format: tissue-based
T2 sequence (P21397 whole entry): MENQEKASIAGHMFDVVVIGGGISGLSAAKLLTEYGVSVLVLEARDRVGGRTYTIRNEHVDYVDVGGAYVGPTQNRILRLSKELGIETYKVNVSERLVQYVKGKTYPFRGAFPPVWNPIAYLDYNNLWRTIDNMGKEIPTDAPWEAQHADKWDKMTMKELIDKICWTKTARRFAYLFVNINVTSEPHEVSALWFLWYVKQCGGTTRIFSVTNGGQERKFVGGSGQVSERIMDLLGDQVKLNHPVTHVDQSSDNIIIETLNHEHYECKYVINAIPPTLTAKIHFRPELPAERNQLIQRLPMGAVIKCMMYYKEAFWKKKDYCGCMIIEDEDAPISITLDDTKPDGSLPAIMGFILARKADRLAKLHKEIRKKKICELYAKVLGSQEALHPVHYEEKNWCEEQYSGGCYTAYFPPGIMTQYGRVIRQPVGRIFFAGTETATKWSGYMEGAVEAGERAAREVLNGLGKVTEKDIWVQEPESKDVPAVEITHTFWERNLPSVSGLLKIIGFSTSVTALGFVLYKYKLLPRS

Ri [2]: 1.9 nM
half-life [4]: 20.4 min
Ri [6]: 1.9 nM
Structure (SMILES): COC[C@H]1CN(c2ccc(OCC[C@@H](O)C(F)(F)F)cc2)C(=O)O1 [BEFLOXATONE]
ED50 [1]: 0.07 mg/kg
ED50 [3]: 58 mg/kg
ED50 [5]: 0.2 mg/kg
